According to ChEMBL document CHEMBL1144811, “Design and synthesis of morpholine derivatives. SAR for dual serotonin & noradrenaline reuptake inhibition” (Bioorg Med Chem Lett, 2008):
Activity calls are given as the source filed them. The rule behind the calls is not given here.

Tests used:
[1] = Partition coefficient, log D at pH 7.4; assay type: physicochemical; settings: octanol/water
[2] = molecular target: T1, Sodium-dependent dopamine transporter (Homo sapiens, UniProt Q01959)
Description: (§1) Inhibition of [3H]dopamine reuptake at human DAT expressed in HEK293 cells

[3] = pKa, dissociation constant of the compound; assay type: physicochemical
[4] = molecular target: Sodium-dependent serotonin transporter (Homo sapiens, UniProt P31645); assay: biochemical
Description: Inhibition of [3H]citalopram uptake at human 5HTT expressed in HEK293 cells

[5] = molecular target: Sodium-dependent noradrenaline transporter (Homo sapiens, UniProt P23975); assay: biochemical
Description: Inhibition of [3H]nisoxetine reuptake at human NET expressed in HEK293 cells

Histamine H1 receptor [6] = molecular target: T2, Histamine H1 receptor (Homo sapiens, UniProt P35367)
Histamine H1 receptor [7] = molecular target: T2, Histamine H1 receptor; assay: Inhibition of histamine H1 receptor
[8] = Inhibition of sodium channel site 2
Cytochrome P450 1A2 = molecular target: T3, Cytochrome P450 1A2 (Homo sapiens, UniProt P05177); assay: Inhibition of CYP1A2; assay type: ADME
T3 sequence (P05177 whole entry): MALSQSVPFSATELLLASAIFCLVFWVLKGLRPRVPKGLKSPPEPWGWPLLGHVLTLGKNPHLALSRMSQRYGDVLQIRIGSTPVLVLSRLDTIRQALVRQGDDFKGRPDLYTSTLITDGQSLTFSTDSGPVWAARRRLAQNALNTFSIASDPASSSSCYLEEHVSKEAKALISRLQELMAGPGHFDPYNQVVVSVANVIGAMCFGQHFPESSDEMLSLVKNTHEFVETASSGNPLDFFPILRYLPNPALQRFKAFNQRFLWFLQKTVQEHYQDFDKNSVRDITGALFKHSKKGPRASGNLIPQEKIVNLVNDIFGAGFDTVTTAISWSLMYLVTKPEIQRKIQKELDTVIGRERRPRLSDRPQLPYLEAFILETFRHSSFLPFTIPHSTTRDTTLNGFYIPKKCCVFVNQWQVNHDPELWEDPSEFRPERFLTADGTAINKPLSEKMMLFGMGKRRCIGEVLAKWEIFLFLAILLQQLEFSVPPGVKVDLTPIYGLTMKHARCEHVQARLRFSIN

Histamine H1 receptor [9] = molecular target: T2, Histamine H1 receptor; assay: Inhibition of histamine H1 receptor at 10 uM
[10] = molecular target: Norepinephrine transporter (Rattus norvegicus, UniProt Q9WTR4); assay: Inhibition of rat NET expressed in HEK293 cells; assay type: cell-based
[11] = Metabolic stability in human hepatocytes; assay type: ADME, cell-based, Liver, Hepatocyte
Rattus norvegicus [12] = assay: Increase in 5-hydroxytryptamine level in prefrontal cortex interstitial fluid of rat at 10 mg/kg, sc; assay type: functional; settings: route subcutaneous
Caco-2 [13] = assay: Permeability from apical to basolateral side of human Caco-2 cell membrane at 10 uM; assay type: ADME, cell-based; settings: caco-2, 10 µM
Cytochrome P450 3A4 = Cytochrome P450 3A4 (Homo sapiens, UniProt P08684); assay: Inhibition of CYP3A4; assay type: ADME
Rattus norvegicus [14] = assay: Increase in noradrenaline level in prefrontal cortex interstitial fluid of rat at 10 mg/kg, sc; assay type: functional; settings: route subcutaneous
MDCK [15] = assay: Permeability from basolateral to apical side of P-gp expressing MDCK cell membrane at 10 uM; assay type: ADME, cell-based, Canis lupus familiaris; settings: dog
Cytochrome P450 2C19 = Cytochrome P450 2C19 (Homo sapiens, UniProt P33261); assay: Inhibition of CYP2C19; assay type: ADME
[16] = molecular target: Voltage-gated inwardly rectifying potassium channel KCNH2 (Homo sapiens, UniProt Q12809); assay: Displacement of [3H]dofetilide from human ERG
Cytochrome P450 2C9 = Cytochrome P450 2C9 (Homo sapiens, UniProt P11712); assay: Inhibition of CYP2C9; assay type: ADME
Cytochrome P450 2D6 = Cytochrome P450 2D6 (Homo sapiens, UniProt P10635); assay: Inhibition of CYP2D6; assay type: ADME
[17] = Inhibition of calcium channel L type at diltiazem site
[18] = molecular target: Sodium-dependent serotonin transporter (Rattus norvegicus, UniProt P31652); assay: Inhibition of rat 5HTT expressed in HEK293 cells; assay type: cell-based
Caco-2 [19] = assay: Permeability from basolateral to apical side of human Caco-2 cell membrane at 10 uM; assay type: ADME, cell-based; settings: caco-2, 10 µM
[20] = Metabolic stability in human liver microsomes; assay type: ADME, Microsome
MDCK [21] = assay: Permeability from apical to basolateral side of P-gp expressing MDCK cell membrane at 10 uM; assay type: ADME, cell-based, Canis lupus familiaris; settings: dog
[22] = molecular target: T1, Sodium-dependent dopamine transporter; settings: hek293
Description: as §1

T1 sequence (Q01959 whole entry): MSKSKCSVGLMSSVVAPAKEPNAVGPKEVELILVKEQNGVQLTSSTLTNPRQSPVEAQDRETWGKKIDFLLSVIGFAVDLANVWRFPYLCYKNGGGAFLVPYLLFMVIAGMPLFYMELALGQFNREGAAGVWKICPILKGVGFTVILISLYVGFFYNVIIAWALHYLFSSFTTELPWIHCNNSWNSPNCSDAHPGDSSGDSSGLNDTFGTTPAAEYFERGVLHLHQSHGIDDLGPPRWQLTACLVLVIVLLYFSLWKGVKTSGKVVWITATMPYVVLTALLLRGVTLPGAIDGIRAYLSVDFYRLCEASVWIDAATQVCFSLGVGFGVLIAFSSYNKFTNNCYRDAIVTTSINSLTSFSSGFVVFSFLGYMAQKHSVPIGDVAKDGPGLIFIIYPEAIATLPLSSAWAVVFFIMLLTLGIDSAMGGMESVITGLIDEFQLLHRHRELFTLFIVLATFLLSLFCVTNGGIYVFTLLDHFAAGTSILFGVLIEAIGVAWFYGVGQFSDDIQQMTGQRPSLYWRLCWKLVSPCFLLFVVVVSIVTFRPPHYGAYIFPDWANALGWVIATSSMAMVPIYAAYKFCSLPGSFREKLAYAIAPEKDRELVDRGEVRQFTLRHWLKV
T2 sequence (P35367 whole entry): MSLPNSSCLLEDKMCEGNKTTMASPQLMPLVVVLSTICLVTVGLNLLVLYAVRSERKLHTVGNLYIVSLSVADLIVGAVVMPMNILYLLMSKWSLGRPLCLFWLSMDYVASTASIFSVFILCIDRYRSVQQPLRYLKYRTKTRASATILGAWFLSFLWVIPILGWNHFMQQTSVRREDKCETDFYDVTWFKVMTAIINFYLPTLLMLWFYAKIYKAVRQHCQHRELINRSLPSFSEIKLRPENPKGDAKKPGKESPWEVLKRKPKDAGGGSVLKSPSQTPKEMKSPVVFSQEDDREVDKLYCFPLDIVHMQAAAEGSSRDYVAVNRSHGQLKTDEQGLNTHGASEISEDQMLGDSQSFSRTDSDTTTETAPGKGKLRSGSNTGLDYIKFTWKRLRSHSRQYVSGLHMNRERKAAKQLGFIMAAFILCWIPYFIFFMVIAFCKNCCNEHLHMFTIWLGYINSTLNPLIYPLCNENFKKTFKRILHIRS
Sequence of Sodium-dependent serotonin transporter (Homo sapiens, UniProt P31645) (P31645 whole entry): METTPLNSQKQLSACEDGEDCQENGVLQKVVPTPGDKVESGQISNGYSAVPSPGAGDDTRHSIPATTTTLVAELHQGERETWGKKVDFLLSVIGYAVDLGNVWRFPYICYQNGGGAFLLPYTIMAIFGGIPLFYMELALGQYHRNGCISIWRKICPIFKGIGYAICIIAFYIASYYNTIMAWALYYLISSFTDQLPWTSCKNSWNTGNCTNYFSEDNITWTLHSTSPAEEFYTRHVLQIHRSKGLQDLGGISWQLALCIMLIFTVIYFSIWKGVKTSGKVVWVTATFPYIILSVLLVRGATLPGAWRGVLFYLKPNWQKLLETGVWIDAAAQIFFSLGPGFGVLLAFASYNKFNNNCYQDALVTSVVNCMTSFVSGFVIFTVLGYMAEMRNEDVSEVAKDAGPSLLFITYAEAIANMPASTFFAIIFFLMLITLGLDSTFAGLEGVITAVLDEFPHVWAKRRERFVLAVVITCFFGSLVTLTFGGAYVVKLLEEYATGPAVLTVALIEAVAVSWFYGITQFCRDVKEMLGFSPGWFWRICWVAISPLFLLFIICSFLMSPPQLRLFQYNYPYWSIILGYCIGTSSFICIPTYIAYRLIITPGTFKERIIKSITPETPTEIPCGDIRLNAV
Sequence of Sodium-dependent noradrenaline transporter (P23975 whole entry): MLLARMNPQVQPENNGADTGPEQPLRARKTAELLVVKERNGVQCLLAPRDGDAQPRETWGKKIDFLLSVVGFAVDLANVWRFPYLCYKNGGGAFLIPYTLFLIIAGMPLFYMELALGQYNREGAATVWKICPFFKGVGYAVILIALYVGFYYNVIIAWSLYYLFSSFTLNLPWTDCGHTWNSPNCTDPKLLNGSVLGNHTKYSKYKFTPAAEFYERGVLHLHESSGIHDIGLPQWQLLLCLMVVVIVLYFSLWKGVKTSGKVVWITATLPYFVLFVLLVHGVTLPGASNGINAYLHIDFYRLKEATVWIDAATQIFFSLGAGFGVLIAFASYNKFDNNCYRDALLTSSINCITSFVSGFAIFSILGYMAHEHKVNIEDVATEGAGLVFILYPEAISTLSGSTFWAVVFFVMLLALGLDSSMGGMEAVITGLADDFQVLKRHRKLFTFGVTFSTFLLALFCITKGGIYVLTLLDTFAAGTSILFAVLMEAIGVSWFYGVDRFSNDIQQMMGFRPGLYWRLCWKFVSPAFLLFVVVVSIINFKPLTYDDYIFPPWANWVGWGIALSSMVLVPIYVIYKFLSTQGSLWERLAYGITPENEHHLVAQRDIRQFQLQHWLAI
Sequence of Cytochrome P450 3A4 (P08684 whole entry): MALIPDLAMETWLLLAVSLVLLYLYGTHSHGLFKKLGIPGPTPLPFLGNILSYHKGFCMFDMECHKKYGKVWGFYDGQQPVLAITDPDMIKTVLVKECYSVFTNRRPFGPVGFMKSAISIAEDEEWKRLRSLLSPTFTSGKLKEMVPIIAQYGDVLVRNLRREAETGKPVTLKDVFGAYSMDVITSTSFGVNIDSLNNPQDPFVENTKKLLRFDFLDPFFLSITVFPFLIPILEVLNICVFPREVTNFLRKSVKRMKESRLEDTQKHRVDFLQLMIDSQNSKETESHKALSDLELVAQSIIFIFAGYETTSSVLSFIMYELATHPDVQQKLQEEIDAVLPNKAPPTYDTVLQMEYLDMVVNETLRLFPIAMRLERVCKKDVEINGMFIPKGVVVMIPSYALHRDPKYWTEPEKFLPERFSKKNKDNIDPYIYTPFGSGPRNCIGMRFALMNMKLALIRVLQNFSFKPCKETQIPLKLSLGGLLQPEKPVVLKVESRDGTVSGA
Sequence of Cytochrome P450 2C9 (P11712 whole entry): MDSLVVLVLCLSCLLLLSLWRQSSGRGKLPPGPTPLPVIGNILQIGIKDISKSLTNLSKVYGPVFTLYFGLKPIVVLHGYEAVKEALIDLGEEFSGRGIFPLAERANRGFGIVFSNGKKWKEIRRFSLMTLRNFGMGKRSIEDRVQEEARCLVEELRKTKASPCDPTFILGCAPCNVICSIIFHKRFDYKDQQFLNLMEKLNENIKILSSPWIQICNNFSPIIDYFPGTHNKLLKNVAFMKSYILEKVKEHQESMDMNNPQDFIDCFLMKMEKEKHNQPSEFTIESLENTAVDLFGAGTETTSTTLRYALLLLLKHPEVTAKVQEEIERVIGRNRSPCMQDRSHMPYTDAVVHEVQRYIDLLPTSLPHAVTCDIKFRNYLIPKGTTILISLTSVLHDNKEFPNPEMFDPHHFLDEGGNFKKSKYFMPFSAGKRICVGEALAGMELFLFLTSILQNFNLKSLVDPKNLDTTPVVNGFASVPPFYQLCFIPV
Sequence of Cytochrome P450 2D6 (P10635 whole entry): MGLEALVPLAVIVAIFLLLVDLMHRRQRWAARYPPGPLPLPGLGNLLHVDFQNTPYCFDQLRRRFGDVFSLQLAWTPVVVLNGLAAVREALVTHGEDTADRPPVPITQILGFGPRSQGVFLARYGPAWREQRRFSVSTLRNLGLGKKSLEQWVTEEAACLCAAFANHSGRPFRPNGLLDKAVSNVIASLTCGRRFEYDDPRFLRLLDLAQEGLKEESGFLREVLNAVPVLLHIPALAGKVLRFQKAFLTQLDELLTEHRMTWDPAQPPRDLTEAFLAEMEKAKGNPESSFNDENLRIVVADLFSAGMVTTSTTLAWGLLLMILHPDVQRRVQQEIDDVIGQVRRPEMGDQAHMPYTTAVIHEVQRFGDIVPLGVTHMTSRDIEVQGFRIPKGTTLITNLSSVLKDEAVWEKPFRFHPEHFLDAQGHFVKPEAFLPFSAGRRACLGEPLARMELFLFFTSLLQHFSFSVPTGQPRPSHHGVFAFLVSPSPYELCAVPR
Sequence of Sodium-dependent serotonin transporter (Rattus norvegicus, UniProt P31652) (P31652 whole entry): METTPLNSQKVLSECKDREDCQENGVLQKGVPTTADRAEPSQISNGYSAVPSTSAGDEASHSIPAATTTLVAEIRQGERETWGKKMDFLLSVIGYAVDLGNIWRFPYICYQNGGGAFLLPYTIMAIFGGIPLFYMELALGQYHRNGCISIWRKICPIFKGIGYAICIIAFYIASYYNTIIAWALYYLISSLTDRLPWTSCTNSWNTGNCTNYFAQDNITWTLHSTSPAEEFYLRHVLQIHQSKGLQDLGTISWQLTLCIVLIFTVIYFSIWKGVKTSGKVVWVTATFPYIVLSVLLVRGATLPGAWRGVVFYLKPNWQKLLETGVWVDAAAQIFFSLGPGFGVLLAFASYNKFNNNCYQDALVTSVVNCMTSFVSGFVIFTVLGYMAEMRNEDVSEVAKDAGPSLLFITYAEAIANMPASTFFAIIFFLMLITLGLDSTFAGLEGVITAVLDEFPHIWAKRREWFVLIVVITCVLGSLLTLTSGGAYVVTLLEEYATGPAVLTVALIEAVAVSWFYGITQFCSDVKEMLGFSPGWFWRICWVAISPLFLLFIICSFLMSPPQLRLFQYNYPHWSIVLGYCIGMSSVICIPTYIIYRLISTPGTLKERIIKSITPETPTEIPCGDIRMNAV
Sequence of Cytochrome P450 2C19 (P33261 whole entry): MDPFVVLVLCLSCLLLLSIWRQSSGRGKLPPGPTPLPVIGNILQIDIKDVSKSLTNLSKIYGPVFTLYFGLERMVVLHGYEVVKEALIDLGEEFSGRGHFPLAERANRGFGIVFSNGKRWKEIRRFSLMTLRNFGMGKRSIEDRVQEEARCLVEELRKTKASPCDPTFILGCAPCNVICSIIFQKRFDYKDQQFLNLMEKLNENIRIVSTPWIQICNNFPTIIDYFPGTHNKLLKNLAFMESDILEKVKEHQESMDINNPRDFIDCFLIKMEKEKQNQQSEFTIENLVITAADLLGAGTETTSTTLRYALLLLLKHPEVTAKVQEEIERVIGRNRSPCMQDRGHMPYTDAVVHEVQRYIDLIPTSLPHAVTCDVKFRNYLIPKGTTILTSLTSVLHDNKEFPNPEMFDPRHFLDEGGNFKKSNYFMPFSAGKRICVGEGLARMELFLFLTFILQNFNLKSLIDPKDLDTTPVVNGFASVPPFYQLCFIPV

Compound	Ki [2]	Ki [4]	Ki [5]	also measured
COc1cc(Cl)ccc1OC(c1ccccc1)C1CNCCO1 (racemic; syn)	5050 nM	–	–	logD [1]: 1.9; pKa [3]: 7.7
COc1cc(Cl)ccc1O[C@@H](c1ccc(C)cc1)[C@@H]1CNCCO1	1650 nM	88 nM	180 nM	–
c1ccc([C@@H](Oc2cccc3c2OCC3)[C@H]2CNCCO2)cc1	5750 nM	20 nM	350 nM	Ki (Histamine H1 receptor [6]): 10 nM
COc1cc(C(F)(F)F)ccc1O[C@@H](c1ccccc1)[C@@H]1CNCCO1	–	41 nM	160 nM	–
COc1cc(Cl)ccc1OC(c1ccccc1)C1CNCCO1 (racemic; anti)	2200 nM	–	–	–
Fc1ccc(O[C@@H](c2ccccc2)[C@@H]2CNCCO2)c(Cl)c1	1170 nM	–	–	Activity (Histamine H1 receptor [7]): inactive
COc1cc(F)ccc1O[C@@H](c1ccccc1)[C@@H]1CNCCO1	3080 nM	740 nM	6 nM	Activity (Histamine H1 receptor [7]): inactive
Fc1cccc(O[C@H](c2ccccc2)[C@H]2CNCCO2)c1F	380 nM	12 nM	130 nM	Ki (Histamine H1 receptor [6]): 10 nM
CCOc1cc(Cl)ccc1OC(c1ccccc1)C1CNCCO1 (racemic; anti)	1670 nM	220 nM	390 nM	–
c1ccc([C@H](Oc2cccc3c2OCC3)[C@@H]2CNCCO2)cc1	–	1800 nM	12 nM	Activity (Histamine H1 receptor [7]): inactive
COc1cc(Cl)ccc1O[C@@H](c1ccccc1)[C@@H]1CNCCO1	1570 nM	–	–	Ki [8]: 1200 nM; IC50 (Cytochrome P450 1A2): > 29000 nM; inhibition (Histamine H1 receptor [9]): < 20%; Ki [10]: 6 nM; half-life [11]: 3.1 h; Activity (Rattus norvegicus [12]): 160%; Papp (Caco-2 [13]): 18 10^-6/cm; IC50 (Cytochrome P450 3A4): > 29000 nM; Activity (Rattus norvegicus [14]): 170%; Papp (MDCK [15]): 35 10^-6/cm; IC50 (Cytochrome P450 2C19): > 29000 nM; Ki [16]: 3300 nM; IC50 (Cytochrome P450 2C9): > 29000 nM; IC50 (Cytochrome P450 2D6): > 29000 nM; Ki [17]: 2000 nM; Ki [18]: 59 nM; Papp (Caco-2 [19]): 16 10^-6/cm; half-life [20]: > 2 h; Papp (MDCK [21]): 22 10^-6/cm
COc1cc(Br)ccc1O[C@@H](c1ccccc1)[C@@H]1CNCCO1	–	30 nM	–	–
COc1cc(Cl)ccc1O[C@@H](c1ccc(F)cc1)[C@@H]1CNCCO1	–	62 nM	29 nM	–
COc1cc(C#N)ccc1O[C@@H](c1ccccc1)[C@@H]1CNCCO1	–	110 nM	210 nM	–
Clc1cccc(O[C@@H](c2ccccc2)[C@@H]2CNCCO2)c1Cl	420 nM	100 nM	17 nM	–
COc1cc(Cl)ccc1O[C@@H](c1ccccc1C)[C@@H]1CNCCO1	–	70 nM	84 nM	–
COc1ccc(O[C@@H](c2ccccc2)[C@@H]2CNCCO2)c(Cl)c1	1090 nM	96 nM	28 nM	–
COc1cc(Cl)ccc1O[C@@H](c1cccc(C)c1)[C@@H]1CNCCO1	–	69 nM	16 nM	–
COc1cc(Cl)ccc1O[C@H](c1ccccc1)[C@H]1CNCCO1	1790 nM	–	–	Ki (Histamine H1 receptor [6]): 26 nM
CCOc1cc(Cl)ccc1OC(c1ccccc1)C1CNCCO1 (racemic; syn)	1540 nM	60 nM	15 nM	–
COc1cc(F)ccc1O[C@H](c1ccccc1)[C@H]1CNCCO1	–	22 nM	610 nM	Ki (Histamine H1 receptor [6]): 10 nM
Cc1cc(F)ccc1O[C@@H](c1ccccc1)[C@@H]1CNCCO1	1250 nM	185 nM	18 nM	Activity (Histamine H1 receptor [7]): inactive
COc1cc(Cl)ccc1O[C@@H](c1cccc(F)c1)[C@@H]1CNCCO1	10800 nM	58 nM	9 nM	–
CCOc1c(Cl)cccc1OC(c1ccccc1)C1CNCCO1 (racemic; syn)	–	240 nM	275 nM	Ki [22]: > 10000 nM
CCOc1c(Cl)cccc1OC(c1ccccc1)C1CNCCO1 (racemic; anti)	> 10000 nM	340 nM	1490 nM	–
Cc1cc(F)ccc1O[C@H](c1ccccc1)[C@H]1CNCCO1	950 nM	34 nM	860 nM	Ki (Histamine H1 receptor [6]): 10 nM
Fc1ccc(O[C@H](c2ccccc2)[C@H]2CNCCO2)c(Cl)c1	760 nM	–	–	Ki (Histamine H1 receptor [6]): 10 nM
COc1cc(Cl)ccc1O[C@@H](c1ccccc1F)[C@@H]1CNCCO1	–	70 nM	22 nM	–
Fc1cccc(O[C@@H](c2ccccc2)[C@@H]2CNCCO2)c1F	2600 nM	3390 nM	10 nM	Activity (Histamine H1 receptor [7]): inactive
